Measured values as given in patent US4945171A, “Xanthene dyes having a fused (C) benzo ring” (Molecular Probes, Inc., priority 1987, dated 1990).

Assays:
[1] = absorption spectra (maxima and extinction coefficients) of benzo[c]xanthene dyes; type: physicochemical; conditions: for ABSORPTION, ACID MAXIMA (second) / EXTINCTION COEFFICIENT, ACID MAXIMA (second) / ABSORPTION, ACID MAXIMA (first) / EXTINCTION COEFFICIENT, ACID MAXIMA (first): acid form; for ABSORPTION, ACID MAXIMA (second) / EXTINCTION COEFFICIENT, ACID MAXIMA (second): longer-wavelength maximum; for ABSORPTION, ACID MAXIMA (first) / EXTINCTION COEFFICIENT, ACID MAXIMA (first): shorter-wavelength maximum; for ABSORPTION, BASE MAXIMUM / EXTINCTION COEFFICIENT, BASE MAXIMUM: base form
Description: (§1) A stock solution was prepared by dissolving 7.6 mg of compound 3 in 2.00 ml methanol. The stock solution was diluted ten-fold into 40 mM pH 9.00 potassium phosphate buffer. Absorbance solutions were prepared by further diluting 25 μl of the aqueous stock solution to 2.025 ml with 40 mM potassium phosphate buffers of the appropriate pH.

[2] = physchem; conditions: 40 mm potassium phosphate buffer
Description: as §1

[3] = fluorescence excitation/emission and quantum yield of benzo[c]xanthene dyes; type: physicochemical; conditions: for FLUORESCENCE, ACID EMIT / FLUORESCENCE, ACID EXCITE: acid form; for FLUORESCENCE, BASE EMIT / FLUORESCENCE, BASE EXCITE: base form; for APPROX. QY. (quantum yield): relative to fluorescein or sulforhodamine 101
From the text: Fluorescence data was obtained on a Perkin-Elmer Model 650-40 Fluorescence Spectrophotometer with a Perkin-Elmer/Hitachi 057 X-Y Recorder using a tenfold dilution of the absorbance solutions. An estimate of the quantum yield of the dyes relative to fluorescein or sulforhodamine 101 was obtained by integrating the emission spectrum of the dye excited at the same optical density as the standard.

[4] = determination of the pKa for the benzo[c]xanthene indicators from plot of absorbance ratios versus pH; conditions: 40 mM potassium phosphate buffers
Description: as §1

[5] = system: cells; conditions: cited from earlier work
[6] = potassium phosphate buffer, pH 7.0

Row | Compound | ABSORPTION, ACID MAXIMA (second) [1] | EXTINCTION COEFFICIENT, ACID MAXIMA (second) [1] | ABSORPTION, ACID MAXIMA (first) [1] | EXTINCTION COEFFICIENT, ACID MAXIMA (first) [1] | ABSORPTION, BASE MAXIMUM [1] | EXTINCTION COEFFICIENT, BASE MAXIMUM [1] | pKa [2] | FLUORESCENCE, ACID EMIT [3] | FLUORESCENCE, ACID EXCITE [3] | FLUORESCENCE, BASE EMIT [3] | FLUORESCENCE, BASE EXCITE [3] | APPROX. QY. (quantum yield) [3] | pKa [4] | membrane permeability [5] | retention by cells ([5]; due to its high membrane permeability) | Absorbance maximum (first) [1, 6] | Absorbance maximum (second) [1, 6] | extinction coefficient (first maximum) [1, 6] | extinction coefficient (second maximum) [1, 6]
1 | CN(C)c1ccc2c(c1)Oc1c(ccc3cc(O)ccc13)C21OC(=O)c2cc(C(=O)O)ccc21 (centres unmarked) [Compound 8, 5'-carboxy-10-dimethylamino-3-hydroxy-spiro[7H-benzo[c]xanthene-7,1'(3'H)-isobenzofuran]-3'-one] | 548 NM | 25.7 10^3 cm^-1 M^-1 | 518 NM | 23.2 10^3 cm^-1 M^-1 | 574 NM | 44.9 10^3 cm^-1 M^-1 | 7.5 | 587 NM | 556 NM | 636 NM | 581 NM | ~0.20 |  |  |  |  |  |  | 
2 | O=C1OC2(c3ccc(O)cc3Oc3c2ccc2cc(O)ccc32)c2ccccc21 (centres unmarked) [Compound 1, 3,10-dihydroxy-spiro[7H-benzo[c]xanthen-7,1'(3'H)-isobenzofuran]-3'-one] |  | 28.2 10^3 cm^-1 M^-1 | 480 NM | 24.8 10^3 cm^-1 M^-1 | 537 NM | 49.7 10^3 cm^-1 M^-1 | 7.85 | 539 NM | 513 NM | 618 NM | 540 NM | ~0.34 |  |  |  |  |  |  | 
3 | CCN(CC)c1ccc2c(c1)Oc1c(ccc3cc(O)ccc13)C21OC(=O)c2ccccc21 (centres unmarked) [Compound 6] | 550 NM | 24.4 10^3 cm^-1 M^-1 | 518 NM | 20.5 10^3 cm^-1 M^-1 | 577 NM | 46.4 10^3 cm^-1 M^-1 | 7.5 | 583 NM | 557 NM | 632 NM | 582 NM | ~0.23 |  |  |  |  |  |  | 
4 | 5'-(and-6')-carboxy-3,10-dihydroxy-spiro[7H-benzo[c]xanthene-7,1'(3'H)-isobenzofuran]-3'-one [Compound 2] | 508 NM | 28.5 10^3 cm^-1 M^-1 | 479 NM | 22.8 10^3 cm^-1 M^-1 | 537 NM | 44.4 10^3 cm^-1 M^-1 |  | 543 NM | 514 NM | 623 NM | 543 NM | ~0.35 | 7.80 |  |  |  |  |  | 
5 | CN(C)c1ccc2c(c1)Oc1c(ccc3cc(O)ccc13)C21OC(=O)c2ccccc21 (centres unmarked) [Compound 5] | 544 NM | 21.6 10^3 cm^-1 M^-1 | 515 NM | 17.7 10^3 cm^-1 M^-1 | 573 NM | 44.1 10^3 cm^-1 M^-1 | 7.6 | 585 NM | 549 NM | 632 NM | 582 NM | ~0.19 |  |  |  |  |  |  | 
6 | O=C(O)c1ccc2c(c1)C(=O)OC21c2cc3c4c(c2Oc2c1ccc1cc(O)ccc21)CCCN4CCC3 (centres unmarked) [Compound 11, [h,i]julolidino-spiro[7H-benzo[c]xanthen-7,1'(3'H)-isobenzofuran]-3'-one] | 569 NM | 19.4 10^3 cm^-1 M^-1 | 529 NM | 22.2 10^3 cm^-1 M^-1 | 587 NM | 38.7 10^3 cm^-1 M^-1 | 7.9 | 599 NM | 530 NM | 630 NM | 590 NM | ~0.35 |  |  |  |  |  |  | 
7 | CCN(CC)c1ccc2c(c1)Oc1c(ccc3cc(O)ccc13)C21OC(=O)c2ccc(C(=O)O)cc21 (centres unmarked) [Compound 9] | 550 NM | 29.7 10^3 cm^-1 M^-1 | 517 NM | 26.2 10^3 cm^-1 M^-1 | 577 NM | 51.5 10^3 cm^-1 M^-1 | 7.75 | 583 NM | 558 NM | 633 NM | 582 NM | ~0.24 |  |  |  |  |  |  | 
8 | N#Cc1c(O)ccc(O)c1C#N [Dihydroxyphthalonitrile] |  |  |  |  |  |  |  |  |  |  |  |  |  | high membrane permeability | not well retained by cells |  |  |  | 
9 | CC(=O)Oc1ccc2c3c(ccc2c1)C1(OC(=O)c2cc(C(=O)O)ccc21)c1ccc(N(C)C)cc1O3 (centres unmarked) [Compound 14, 3-acetoxy-5'-carboxy-10-dimethylamino-spiro[7H-benzo[c]xanthene-7,1'(3'H)-isobenzofuran]-3'-one] |  |  |  |  |  |  |  |  |  |  |  |  |  |  |  | 511 nm | 540 nm | 24,100 cm^-1 M^-1 | 21,700 cm^-1 M^-1
10 | CCNc1cc2c(cc1C)C1(OC(=O)c3ccccc31)c1ccc3cc(O)ccc3c1O2 (centres unmarked) [Compound 7] | 522 NM |  | 495 NM |  | 552 NM |  | 7.7 | 552 NM | 525 NM | 629 NM | 558 NM | ~0.38 |  |  |  |  |  |  | 
11 | O=C(O)c1ccc2c(c1)C1(OC2=O)c2cc(Cl)c(O)cc2Oc2c1ccc1cc(O)ccc21 (centres unmarked) [Compound 3] | 514 NM | 25.3 10^3 cm^-1 M^-1 | 485 NM | 20.5 10^3 cm^-1 M^-1 | 547 NM | 40.4 10^3 cm^-1 M^-1 | 7.65 | 546 NM | 517 NM | 630 NM | 552 NM | ~0.48 |  |  |  |  |  |  | 
